Columns and labels:
rice = experiment: Test B flood test rice; assay type: in vivo, Oryza sativa
Procedure, shortened: (§1)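 Plants were grown to the 2-leaf stage before treatment with test chemical, then held in a greenhouse for twelve to sixteen days. Injury was visually rated against untreated controls on a 0–10 scale, where 0 is no effect and 10 is complete control.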

giant foxtail = experiment: Test B pre/postemergence giant foxtail; assay type: in vivo, Setaria faberii
Procedure, shortened: (§2)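 Herbicidal effect was estimated by eye on a ten-point control scale after plants spent twelve to sixteen days in a greenhouse following soil or foliar treatment. Foliar sprays targeted plants at one to four leaves; all doses were formulated in a non-phytotoxic solvent with surfactant.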

crabgrass = experiment: Test B pre/postemergence crabgrass; assay type: in vivo, Digitaria sanguinalis
Procedure, shortened: as §2

purple nutsedge = experiment: Test B pre/postemergence purple nutsedge; assay type: in vivo, Cyperus rotundus
Procedure, shortened: as §2

pigweed = experiment: Test B pre/postemergence pigweed; assay type: in vivo, Amaranthus retroflexus
Procedure, shortened: as §2

smallflower flatsedge = experiment: Test B flood test smallflower flatsedge; assay type: in vivo, Cyperus difformis
Procedure, shortened: as §1

wild oat = experiment: Test B pre/postemergence wild oat; assay type: in vivo, Avena fatua
Procedure, shortened: as §2

corn = experiment: Test B pre/postemergence corn; assay type: in vivo, Zea mays
Procedure, shortened: as §2

duck salad = experiment: Test B flood test duck salad; assay type: in vivo, Heteranthera limosa
Procedure, shortened: as §1

morningglory = experiment: Test B pre/postemergence morningglory; assay type: in vivo, Ipomoea hederacea
Procedure, shortened: as §2

sugar beet = experiment: Test B pre/postemergence sugar beet; assay type: in vivo, Beta vulgaris
Procedure, shortened: as §2

soybean = experiment: Test B pre/postemergence soybean; assay type: in vivo, Glycine max
Procedure, shortened: as §2

cocklebur = experiment: Test B pre/postemergence cocklebur; assay type: in vivo, Xanthium strumarium
Procedure, shortened: as §2

rape = experiment: Test B pre/postemergence rape; assay type: in vivo, Brassica napus
Procedure, shortened: as §2

wheat = experiment: Test B pre/postemergence wheat; assay type: in vivo, Triticum aestivum
Procedure, shortened: as §2

velvetleaf = experiment: Test B pre/postemergence velvetleaf; assay type: in vivo, Abutilon theophrasti
Procedure, shortened: as §2

[1] = Postemergence block (flood test species), Rate 250 g/ha, scale 0 to 10
[2] = Postemergence section (flood test species), Rate 500 g/ha, scale of 0 to 10 where 0 is no effect and 10 is complete control
[3] = Rate 125 g/ha, Postemergence section (flood test species), scale 0 to 10, 0 is no effect, 10 is complete control
[4] = Postemergence, Rate 250 g/ha, scale 0 to 10
[5] = Postemergence, Rate 500 g/ha, scale of 0 to 10 where 0 is no effect and 10 is complete control
[6] = Preemergence, Rate 62 g/ha, scale 0 to 10 (0 no effect, 10 complete control)
[7] = Preemergence, Rate 125 g/ha, scale of 0 to 10 where 0 is no effect and 10 is complete control
[8] = Preemergence, Rate 250 g/ha, scale 0 to 10, 0 is no effect, 10 is complete control
[9] = Preemergence, Rate 500 g/ha, scale 0 to 10, 0 is no effect, 10 is complete control
[10] = Rate 62 g/ha, Postemergence, scale of 0 to 10 where 0 is no effect and 10 is complete control
[11] = Rate 125 g/ha, Postemergence, scale 0 to 10, 0 is no effect, 10 is complete control

SMILES: CCN(C(=O)n1oc(=O)n(C2CCCCCC2)c1=O)C1CCCCC1 [Compound 429]
- Rice plant response rating (rice; [1]): 0
- Rice plant response rating (rice; [2]): 0
- Rice plant response rating (rice; [3]): 0
- Giant foxtail plant response rating (giant foxtail; [4]): 2
- Giant foxtail plant response rating (giant foxtail; [5]): 4
- Plant response rating, Giant foxtail (giant foxtail; [6]): 3
- Plant response rating, Giant foxtail (giant foxtail; [7]): 10
- Giant foxtail plant response rating (giant foxtail; [8]): 10
- Giant foxtail plant response rating (giant foxtail; [9]): 10
- Giant foxtail plant response rating (giant foxtail; [10]): 0
- Giant foxtail plant response rating (giant foxtail; [11]): 1
- Crabgrass plant response rating (crabgrass; [4]): 2
- Crabgrass plant response rating (crabgrass; [5]): 3
- Plant response rating, Crabgrass (crabgrass; [6]): 7
- Plant response rating, Crabgrass (crabgrass; [7]): 10
- Crabgrass plant response rating (crabgrass; [8]): 10
- Crabgrass plant response rating (crabgrass; [9]): 10
- Crabgrass plant response rating (crabgrass; [10]): 0
- Crabgrass plant response rating (crabgrass; [11]): 1
- Nutsedge plant response rating (purple nutsedge; [4]): 0
- Nutsedge plant response rating (purple nutsedge; [5]): 0
- Plant response rating, Nutsedge (purple nutsedge; [6]): 0
- Plant response rating, Nutsedge (purple nutsedge; [7]): 0
- Nutsedge plant response rating (purple nutsedge; [8]): 0
- Nutsedge plant response rating (purple nutsedge; [9]): 0
- Nutsedge plant response rating (purple nutsedge; [11]): 0
- Redroot pigweed plant response rating (pigweed; [4]): 0
- Redroot pigweed plant response rating (pigweed; [5]): 0
- Plant response rating, Redroot pigweed (pigweed; [6]): 0
- Plant response rating, Redroot pigweed (pigweed; [7]): 0
- Redroot pigweed plant response rating (pigweed; [8]): 0
- Redroot pigweed plant response rating (pigweed; [9]): 0
- Redroot pigweed plant response rating (pigweed; [11]): 0
- S. Flatsedge plant response rating (smallflower flatsedge; [1]): 3
- S. Flatsedge plant response rating (smallflower flatsedge; [2]): 9
- S. Flatsedge plant response rating (smallflower flatsedge; [3]): 0
- Wild oats plant response rating (wild oat; [4]): 0
- Wild oats plant response rating (wild oat; [5]): 0
- Plant response rating, Wild oats (wild oat; [6]): 0
- Plant response rating, Wild oats (wild oat; [7]): 0
- Wild oats plant response rating (wild oat; [8]): 0
- Wild oats plant response rating (wild oat; [9]): 0
- Wild oats plant response rating (wild oat; [11]): 0
- Corn plant response rating (corn; [4]): 0
- Corn plant response rating (corn; [5]): 0
- Plant response rating, Corn (corn; [6]): 0
- Plant response rating, Corn (corn; [7]): 0
- Corn plant response rating (corn; [8]): 0
- Corn plant response rating (corn; [9]): 0
- Corn plant response rating (corn; [10]): 0
- Corn plant response rating (corn; [11]): 0
- Ducksalad plant response rating (duck salad; [1]): 6
- Ducksalad plant response rating (duck salad; [2]): 6
- Ducksalad plant response rating (duck salad; Rate 62 g/ha, Postemergence (flood test species), scale of 0 to 10 where 0 is no effect and 10 is complete control): 0
- Ducksalad plant response rating (duck salad; [3]): 2
- Morningglory plant response rating (morningglory; [4]): 2
- Morningglory plant response rating (morningglory; [5]): 3
- Plant response rating, Morningglory (morningglory; [6]): 0
- Plant response rating, Morningglory (morningglory; [7]): 0
- Morningglory plant response rating (morningglory; [8]): 0
- Morningglory plant response rating (morningglory; [9]): 0
- Morningglory plant response rating (morningglory; [11]): 1
- Sugarbeets plant response rating (sugar beet; [4]): 0
- Sugarbeets plant response rating (sugar beet; [5]): 0
- Plant response rating, Sugarbeets (sugar beet; [6]): 0
- Plant response rating, Sugarbeets (sugar beet; [7]): 0
- Sugarbeets plant response rating (sugar beet; [8]): 0
- Sugarbeets plant response rating (sugar beet; [9]): 0
- Sugarbeets plant response rating (sugar beet; [11]): 0
- Soybean plant response rating (soybean; [4]): 2
- Soybean plant response rating (soybean; [5]): 3
- Plant response rating, Soybean (soybean; [6]): 0
- Plant response rating, Soybean (soybean; [7]): 0
- Soybean plant response rating (soybean; [8]): 0
- Soybean plant response rating (soybean; [9]): 0
- Soybean plant response rating (soybean; [11]): 2
- Cocklebur plant response rating (cocklebur; [4]): 0
- Cocklebur plant response rating (cocklebur; [5]): 0
- Plant response rating, Cocklebur (cocklebur; [6]): 0
- Plant response rating, Cocklebur (cocklebur; [7]): 0
- Cocklebur plant response rating (cocklebur; [8]): 0
- Cocklebur plant response rating (cocklebur; [9]): 0
- Cocklebur plant response rating (cocklebur; [10]): 0
- Cocklebur plant response rating (cocklebur; [11]): 0
- Rape plant response rating (rape; [4]): 0
- Rape plant response rating (rape; [5]): 0
- Plant response rating, Rape (rape; [6]): 0
- Plant response rating, Rape (rape; [7]): 0
- Rape plant response rating (rape; [8]): 0
- Rape plant response rating (rape; [9]): 0
- Rape plant response rating (rape; [11]): 0
- Wheat plant response rating (wheat; [4]): 0
- Wheat plant response rating (wheat; [5]): 0
- Plant response rating, Wheat (wheat; [6]): 0
- Plant response rating, Wheat (wheat; [7]): 0
- Wheat plant response rating (wheat; [8]): 0
- Wheat plant response rating (wheat; [9]): 0
- Wheat plant response rating (wheat; [11]): 0
- Velvetleaf plant response rating (velvetleaf; [4]): 2
- Velvetleaf plant response rating (velvetleaf; [5]): 2
- Plant response rating, Velvetleaf (velvetleaf; [6]): 0
- Plant response rating, Velvetleaf (velvetleaf; [7]): 0
- Velvetleaf plant response rating (velvetleaf; [8]): 0
- Velvetleaf plant response rating (velvetleaf; [9]): 0
- Velvetleaf plant response rating (velvetleaf; [11]): 0

From patent US6737383B1, “Herbicidal oxadiazolidines” (priority 1999, dated 2004)
